# Marks after values point to notes of the source that are not given here.
# What was measured:
# [1] = system: impairment of memory acquisition in step-down test in rats (scopolamine); test: Passive avoidance task (step-down test), scopolamine-induced impairment of memory acquisition; format: in vivo
# Protocol: Passive avoidance task (step-down test): A step-down passive avoidance was examined using apparatus consisted of a box (25×25×40 cm), a floor with stainless-steel grid 2 mm in diameter at 8-mm intervals, and a rubber platform (4 cm diameter, 4 cm height) set on the grid in one corner. Electric stimulation was given through the grid connected with a scrambled shock generator. […] For this trial, each rat was placed gently on the platform and allowed to habituate freely for 3 min, and then electric shock (0.4 mA) were delivered to the grid. If the rat stepped down from the platform, the electric shock was delivered to the rat on the grid floor. The cut off time was 2 min. A retention trail was performed 24 hr after the acquisition trail. Each rat was again placed on the platform. Time (step-down latency) that elapsed until rats stepped down from the electric grid of the platform to shock free zone was recorded. […] An error was counted when ever the rat stepped down from platform. The number of error made in 2 min was recorded.
# [2] = system: λ carrageenin induced edema in rats; test: λ carrageenin induced paw edema; format: in vivo
# Protocol: Carrageenin induced paw edema: Rats were injected with 0.1 ml of 1% λ carrageenin (St.-Louis, Mo.) into the subplantar side of the left hind paw. The paw was marked with ink at the level of the lateral malleolus and dipped in perspex cell up to this mark. The paw volume was measured with an Ugo Basile Plethysmometer (No: 61402) (7140 Comerio-varese, Italy) immediately and 3 h after injecting the λ carrageenin suspension. […] Significant reductions in the paw volume compared to vehicle treated control animals were considered as anti-inflammatory response. Percentage inhibition of oedema was calculated as follows: % Inhibition=(1−VT/VC)×100 VT=Paw volume in drug treated rats, VC=Paw volume in control group of rats.
Compound,number of mistakes and latency period (in words) ([1]; scopolamine treated group),"Latency ([1]; step-down test, rats n=10, scopolamine 0.4 mg/kg i.p., formulations 100 mg/kg, tacrine dose not given, mean ± S.E.M.) [s]","Paw volume (ml) at 3 h λ carrageenin ([2]; 100 mg/kg orally 1 h before carrageenin, six rats, mean ± SEM)","inhibition at 100 mg/kg ([2]; Rattus norvegicus, inhibition of paw oedema at 3 h vs control, 100 mg/kg, (1−VT/VC)×100) [%]"
CN1[C@@H]2C[C@@H](OC(=O)[C@H](CO)c3ccccc3)C[C@H]1[C@@H]1O[C@@H]12 [Scopolamine],significant increase in the number of mistakes as well as increase the latency period,8.8 ± 0.03,–,–
COc1ccc2c(c1)c(CC(=O)O)c(C)n2C(=O)c1ccc(Cl)cc1 [Indomethacin],–,–,0.18 ± 0.02^c ml,79.3
